From patent publication US20220175761A1, “BI-LIGAND DRUG CONJUGATE AND USE THEREOF” (COHERENT BIOPHARMA (SUZHOU), LIMITED, priority 2019, published 2022)
pIC50: −log10 of the molar value. Numbered stars: 1 amine (or outer) side, 2 acyl side, 3 side chain; on linkers, the order of the positions; unused ones are H or OH. Bridge positions count the residues as written; N and C are the ends. Square brackets hold non-standard residues; d marks the D form. Peptide text beside a SMILES is read from it. I, II: the chains in the order shown. * marks the point of attachment. ξ: configuration not given here. Hexanoyl(6-succinimido-3yl) = O=C1CC([*:1])C(=O)N1CCCCCC(=O)[*:2]; EuK = O=C(O)CC[C@H](NC(=O)N[C@@H](CCCCN*)C(=O)O)C(=O)O; Dolaproine = CO[C@@H]([C@@H]1CCCN1)[C@@H](C)C(=O)O; Dil = CC[C@H](C)[C@H](NC)[C@@H](CC(=O)O)OC; PABC = O=C(OCc1ccc(N[*:1])cc1)[*:2]; X1 = C[C@@H](N*)[C@@H](O)c1ccccc1; X2 = O=C(Cc1ccc(CN[*:1])cc1)[*:2]; PEG4 = NCCOCCOCCOCCOCCC(=O)O; NMeV = CN[C@H](C(=O)O)C(C)C; ξCit = NC(=O)NCCCC(N)C(=O)O; CO = O=C([*:1])[*:2]; ξV = CC(C)C(N)C(=O)O; Ahx = NCCCCCC(=O)O

Legend:
[1] = tested on: LNCaP (human prostate cancer cells); test: Inhibition of cell line proliferation, CCK8; format: cell-based; conditions: LNCaP; for pIC50: 68-72 hours, CCK8
[2] = tested on: HPAF-II (human pancreatic cancer cells); test: Tumor growth inhibition in subcutaneous xenograft model (CDX); format: in vivo, BALB/c-nude mice
Experimental: (§1) Main CDX models: HPAF-II (human pancreatic cancer cells), NCI-H226 (human lung cancer cells) and SCLC-21H (small cell lung cancer cells)
(§2) The cells or tumor tissue mass were prepared and subcutaneously inoculated into the anterior right flank of BALB/c-nude mice. When the tumor volume expanded to 80-160 mm^3, a randomized grouping was performed, and a model control group and administration groups were set. The mice were administrated from the first day of grouping, wherein the administration dose was adjusted according to the latest weight measurement. The mice were administrated via tail vein injection at an administration volume of 10 μl/g. After grouping and administration, the effects of tumor growth and treatment on normal behaviors of animals, specifically including the activity of experimental animals, food intake and drinking status, weight gain or loss status, and other abnormal conditions in eyes, hair, etc., were monitored. After grouping and administration, the weight of mice was measured twice a week to calculate the rate of weight change; at the same time, the long diameter and short diameter of the tumor were measured with a vernier caliper, and the tumor volume, relative tumor proliferation rate, tumor volume inhibition rate and other indicators were calculated. The formula of tumor volume is TV=0.5 a×b^2, wherein a is […] the long diameter of a tumor and b is the short diameter of a tumor.

[3] = tested on: SK-BR-3 (human breast cancer cells); test: Inhibition of cell line proliferation, CCK8; format: cell-based; conditions: for IC50 (MMAE)/IC50 (conjugate): SK-BR-3; for pIC50: SK-BR-3, 68-72 hours, CCK8
Experimental: (§3) Experimental operations: LNCaP, SK-BR-3, NCI-H226, CFPAC-1 and PANC-1 cells were prepared in advance and counted; with a culture medium (IMDM+10% FBS+1× L-Glutamine+1×P/S), the cells LNCaP, SK-BR-3 and CFPAC-1 were diluted to 4×10^4 cells/ml, NCI-H226 was diluted to 2.0×10^4 cells/ml and PANC-1 was diluted to 3.0×10^4 cells/ml; the diluted cell solution was plated in 96-well plates at 100 μl/well; and negative control and blank control wells were set on each plate. After adherent cell culture overnight, the diluted samples to be tested were added at 50 μl/well. The plates were placed in an incubator at 37° C., 5% CO2 and cultured for 68-72 hours. To each well, 15 μl (10% of the liquid volume in a well) of a color developing solution from CCK8 was added; and the plates were incubated at 37° C. for 45-70 minutes and each plate was read at 450 nm on a microplate reader. The data was edited using SoftMax Pro and a 4-P fitting curve was plotted.
(§4) Experimental Operations: LNCaP, SK-BR-3, MDA-MB-468 and CFPAC-1 cells were prepared in advance and counted; with a culture medium (IMDM+10% FBS+1× L-Glutamine+1×P/S), the cells LNCaP, SK-BR-3, MDA-MB-468 and CFPAC-1 were diluted to 4×10^4 cells/ml; the diluted cell solution was plated in 96-well plates at 100 µl/well; and negative control and blank control wells were set on each plate. After adherent cell culture overnight, the diluted samples to be tested were added at 50 μl/well. The plates were placed in an incubator at 37° C., 5% CO2 and cultured for 68-72 hours. To each well, 15 μl (10% of the liquid volume in a well) of a color developing solution from CCK8 was added; and the plates were incubated at 37° C. for 45-70 minutes and each plate was read at 450 nm on a microplate reader. The data was edited using SoftMax Pro and a 4-P fitting curve was plotted.

[4] = tested on: CFPAC-1 (human pancreatic cancer cells); test: Inhibition of cell line proliferation, CCK8; format: cell-based; conditions: for IC50 (MMAE)/IC50 (conjugate): CFPAC-1; for pIC50: CFPAC-1, 68-72 hours, CCK8
[5] = tested on: NCI-H226 (human lung cancer cells); test: Inhibition of cell line proliferation, CCK8; format: cell-based
Experimental: as §3
Experimental operations: NCI-H226, CFPAC-1 and MDA-MB-468 cells were prepared in advance and counted; MDA-MB-468 and CFPAC-1 cells were plated at a density of 2×10^4 cells/ml (100 μl/well) and NCI-H226 cells were plated at a density of 1×10^4 cells/ml (100 μl/well) in 96-well plates; and negative control and blank control wells were set on each plate. After adherent cell culture overnight, the diluted samples to be tested were added at 50 μl/well. The plates were placed in an incubator at 37° C., 5% CO2 and cultured for 68-72 hours. To each well, 15 μl (10% of the liquid volume in a well) of a color developing solution from CCK8 was added; and the plates were incubated at 37° C. for 45-70 minutes and each plate was read at 450 nm on a microplate reader. The data was edited using SoftMax Pro and a 4-P fitting curve was plotted.

[6] = tested on: PANC-1 (human pancreatic cancer cells); test: Inhibition of cell line proliferation, CCK8; format: cell-based
Experimental: Experimental operations: PANC-1 and CFPAC-1 cells were prepared in advance, counted, and plated in 96-well cell culture plates at a cell density of 4×10^4 cells/ml (100 μl/well); negative control and blank control wells were set on each plate. After adherent cell culture overnight, the diluted samples to be tested were added at 50 μl/well. The plates were placed in an incubator at 37° C., 5% CO2 and cultured for 68-72 hours. To each well, 15 μl (10% of the liquid volume in a well) of a color developing solution from CCK8 was added; and the plates were incubated at 37° C. for 45-70 minutes and each plate was read at 450 nm on a microplate reader. The data was edited using SoftMax Pro and a 4-P fitting curve was plotted.
as §3
as §4, with “Operations: LNCaP, MDA-MB-468, CFPAC-1 and PANC-1” for “Operations: LNCaP, SK-BR-3, MDA-MB-468 and CFPAC-1”, “CFPAC-1 and PANC-1 cells were” for “MDA-MB-468 and CFPAC-1 cells were”, “cells LNCaP, MDA-MB-468 and” for “cells LNCaP, SK-BR-3, MDA-MB-468 and”, “to 4×10^4 cells/ml, and PANC-1 was diluted to 3.0×10^4 cells/ml; the” for “to 4×10^4 cells/ml; the”, “at 100 μl/well; and negative” for “at 100 µl/well; and negative”

[7] = tested on: MDA-MB-468 (human breast cancer cells); test: Inhibition of cell line proliferation, CCK8; format: cell-based
[8] = tested on: SCLC-21H (small cell lung cancer cells); test: Tumor growth inhibition in subcutaneous xenograft model (CDX); format: in vivo, BALB/c-nude mice; conditions: SCLC-21H CDX
Experimental: as §1, §2

[9] = tested on: NCI-H226 (human lung cancer cells); test: as above; format: in vivo, BALB/c-nude mice
Experimental: as §1, §2

## CC[C@H](C)[C@@H]([C@@H](CC(=O)N1CCC[C@H]1[C@H](OC)[C@@H](C)C(=O)N[C@H](C)[C@@H](O)c1ccccc1)OC)N(C)C(=O)[C@@H](NC(=O)[C@H](C(C)C)N(C)C(=O)OCc1ccc(NC(=O)C(CCCNC(N)=O)NC(=O)[C@@H](NC(=O)CCCCCN2C(=O)CC(SC[C@@H](NC(=O)CCCCCNC(=O)[C@H](CCCCN)NC(=O)[C@H](CC(=O)O)NC(=O)[C@H](CC(=O)O)NC(=O)Cc3ccc(CNC(=O)NCCCC[C@H](NC(=O)N[C@@H](CCC(=O)O)C(=O)O)C(=O)O)cc3)C(=O)NCCOCCOCCOCCOCCC(=O)N[C@@H](CCCCN)C(=O)N[C@@H](CCC(=O)O)C(=O)N[C@@H](Cc3ccccc3)C(=O)N[C@@H](CC(C)C)C(=O)N[C@@H](Cc3cnc[nH]3)C(=O)N3CCC[C@H]3C(=O)N[C@@H](CO)C(=O)N[C@@H](CCCCN)C(=O)NC(C(=O)N[C@@H](CC(=O)O)C(=O)N[C@@H](CC(C)C)C(=O)N3CCC[C@H]3C(=O)N[C@@H](CCCNC(=N)N)C(=O)O)C(C)C)C2=O)C(C)C)cc1)C(C)C (stereo partly drawn) [CB-1020] (I: {EuK-CO}-[X2]DDK[Ahx][dC][PEG4]KEFLHPSK[ξV]DLPR-OH / II: V[ξCit][PABC][NMeV]V[Dil][Dolaproine]-X1; linker I:6-II:N via Hexanoyl(6-succinimido-3yl))
[1]
  IC50 ratio (MMAE/conjugate): 0.0179
  pIC50: 6.77
[2]
  anti-tumor growth effect (in words): obvious anti-tumor growth effect
[3]
  IC50 (MMAE)/IC50 (conjugate): 0.0070
  pIC50: 6.54
[4]
  IC50 (MMAE)/IC50 (conjugate): 0.005
  pIC50: 5.52
[5]; NCI-H226
  IC50 (MMAE)/IC50 (conjugate): 0.00384
[5]; NCI-H226, 68-72 hours, CCK8
  pIC50: 5.80
[6]; PANC-1
  IC50 (MMAE)/IC50 (conjugate): 0.0044
[6]; PANC-1, 68-72 hours, CCK8
  pIC50: 6.34

## CC[C@H](C)[C@@H]([C@@H](CC(=O)N1CCC[C@H]1[C@H](OC)[C@@H](C)C(=O)N[C@H](C)[C@@H](O)c1ccccc1)OC)N(C)C(=O)[C@@H](NC(=O)[C@H](C(C)C)N(C)C(=O)OCc1ccc(NC(=O)C(CCCNC(N)=O)NC(=O)[C@@H](NC(=O)CCCCCN2C(=O)CC(SC[C@@H](NC(=O)CCCCCNC(=O)[C@H](CCCCN)NC(=O)[C@H](CC(=O)O)NC(=O)[C@H](CC(=O)O)NC(=O)Cc3ccc(CNC(=O)NCCCC[C@H](NC(=O)N[C@@H](CCC(=O)O)C(=O)O)C(=O)O)cc3)C(=O)NCCOCCOCCOCCOCCC(=O)NCCCCC(N[C@@H](Cc3ccc(O)cc3)C(=O)N[C@@H](CO)C(=O)N[C@@H](Cc3c[nH]c4ccccc34)C(=O)N[C@@H](Cc3cnc[nH]3)C(=O)[C@H]3CCC(=O)N3)C(=O)N[C@@H](CC(C)C)C(=O)N[C@@H](CCCNC(=N)N)C(=O)N3CCC[C@H]3C(=O)CN)C2=O)C(C)C)cc1)C(C)C (stereo partly drawn) [CB-1320]
[1]
  IC50 ratio (MMAE/conjugate): 0.043
  pIC50: 7.22
[7]; MDA-MB-468
  IC50 (MMAE)/IC50 (conjugate): 0.011
[7]; MDA-MB-468, 68-72 hours, CCK8
  pIC50: 6.67
[8]
  anti-tumor growth effect (in words): obvious anti-tumor growth effect
[9]
  anti-tumor growth effect (in words): obvious anti-tumor growth effect
[3]
  IC50 (MMAE)/IC50 (conjugate): 0.016
  pIC50: 7.03
[4]
  IC50 (MMAE)/IC50 (conjugate): 0.014
  pIC50: 5.96
